The target of one experiment is Cbl-b (Homo sapiens, UniProt Q13191). Kind of experiment: Cbl-b inhibition assay (Cbl-b activity assay, FRET, Biological Example 1; 100 mM NaCl, 60 nM Src kinase). Type of experiment: biochemical. The settings on record: upper bound stated in text lists; read-out: IC50 values in the Cbl-b inhibition assay of Biological Example 1. An outline of the steps:
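TR-FRET assay using N-terminal biotinylated Avi-tagged Cbl-b bound to streptavidin-terbium, Src kinase for Cbl-b phosphorylation, and UbcH5B irreversibly conjugated to Bodipy-Fluorescein-ubiquitin. Phosphorylated Cbl-b binds UbcH5B-Ub, bringing the fluorophores together; inhibition is read as loss of FRET signal.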

In experiment [1] the test system is T-cell. Description: CD25 cell surface staining on T-cells stimulated with anti-CD3 antibody alone (Biological Example 2). Type of experiment: cell-based, human. The note with it: T-cell, fold change over baseline, primary human total T-cells, read-out: CD25 staining Anti-CD3 stimulation; for fold induction at 1 µM: 1 μM Cbl-b inhibitor; for fold induction at 8 µM: 8 μM Cbl-b inhibitor.

Experiment [2] deals with T-cell. Description: IL-2 secretion from T-cells stimulated with anti-CD3 antibody alone (Biological Example 2). Type of experiment: cell-based, human. The note with it: T-cell, fold change over baseline, primary human total T-cells, read-out: IL-2 secretion Anti-CD3 stimulation; for fold induction at 1 µM: 1 μM Cbl-b inhibitor; for fold induction at 8 µM: 8 μM Cbl-b inhibitor.

Another experiment addresses Cbl-b (residues 36-427) (Homo sapiens, UniProt Q13191). Kind of experiment: Cbl-b binding assay (SPR, Biacore T200). The settings on record: 20° C., 1:1 binding model. Put shortly:
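NeutrAvidin capture chip, 20° C; 50 s injections at 50 μl/min, 90-180 s dissociation; 0.3 M NaCl regeneration. Asterisked column: 50 mM NaCl buffer and 30 nM Src kinase in place of 100 mM NaCl and 60 nM Src kinase. 1:1 fit.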
For orientation: In SPR one partner is held on a chip, and binding of the other changes the refractive index at the surface.

Among the data in patent US20220324835A1 (Nurix Therapeutics, Inc., priority 2018, published 2022) are IC50, fold induction and Kd values, retold here.

For orientation: IC50 means the midpoint of a concentration-inhibition curve. Usually Kd stands for the constant that tells how readily two partners part at equilibrium. Higher therefore signals a looser complex.

Cbl-b, sequence (Q13191 36-427): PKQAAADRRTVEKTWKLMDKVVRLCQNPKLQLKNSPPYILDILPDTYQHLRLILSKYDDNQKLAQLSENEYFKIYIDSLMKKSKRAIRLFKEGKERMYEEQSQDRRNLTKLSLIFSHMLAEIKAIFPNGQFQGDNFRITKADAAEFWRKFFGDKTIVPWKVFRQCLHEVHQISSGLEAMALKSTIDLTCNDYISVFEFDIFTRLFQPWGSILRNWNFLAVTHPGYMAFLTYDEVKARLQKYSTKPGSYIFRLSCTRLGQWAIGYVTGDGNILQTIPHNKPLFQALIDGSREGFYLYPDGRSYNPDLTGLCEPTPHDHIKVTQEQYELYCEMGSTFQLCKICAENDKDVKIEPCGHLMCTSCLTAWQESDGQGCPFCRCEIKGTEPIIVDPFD
Cbl-b (residues 36-427), sequence (Q13191 36-427): as above

Turning to `Cn1cnnc1C(F)(F)C(C)(F)c1cccc(N2Cc3c(cccc3C(F)(F)F)C2=O)c1` (racemic) [Compound 296, 2-(3-(1,1,2-trifluoro-1-(4-methyl-4H-1,2,4-triazol-3-yl)propan-2-yl)phenyl)-4-(trifluoromethyl)isoindolin-1-one], the IC50 at Cbl-b was no more than 1000 nM. In addition, the fold induction at 1 µM in the experiment on T-cell [1] is 0.601 to 0.8; with T-cell [2], greater than 0.201. Also, the fold induction at 8 µM in the experiment with T-cell [1] is 0.601 to 0.8; in the experiment on T-cell [2], greater than 0.201. At Cbl-b (residues 36-427), this compound returned a Kd of 3000 to 10000 nM.
On to `Cn1cnnc1CC(C)(F)c1cccc(N2Cc3c(cccc3C(F)(F)F)C2=O)c1` (racemic) [Compound 298, 2-(3-(2-fluoro-1-(4-methyl-4H-1,2,4-triazol-3-yl)propan-2-yl)phenyl)-4-(trifluoromethyl)isoindolin-1-one], for which the IC50 on Cbl-b was no more than 500 nM. In the experiment on T-cell [1], the fold induction at 1 µM lay in the range of 0.601 to 0.8 and the fold induction at 8 µM lay in the range of 0.601 to 0.8. In the experiment with T-cell [2], the fold induction at 1 µM lay in the range of 0.051 to 0.1 and the fold induction at 8 µM lay within 0.101 to 0.15. This compound registered a Kd at Cbl-b (residues 36-427) of less than 100 nM.
As to `C[C@H](Cc1nncn1C)c1cc(N[C@@H]2CCOC2)nc(N2Cc3c(cccc3C(F)(F)F)C2=O)c1` (stereo in doubt) [Compound 362, 2-(4-((R)-1-(4-methyl-4H-1,2,4-triazol-3-yl)propan-2-yl)-6-((S)-THF-3-ylamino)pyridin-2-yl)-4-(trifluoromethyl)isoindolin-1-one], the IC50 at Cbl-b was no more than 300 nM. Besides, in the experiment with T-cell [1], the fold induction at 1 µM lay within 0.601 to 0.8 and the fold induction at 8 µM is 0.801 to 1. Also, in the experiment on T-cell [2], the fold induction at 1 µM was in the range of 0.051 to 0.1 and the fold induction at 8 µM is 0.101 to 0.15. The compound further came in with a Kd on Cbl-b (residues 36-427) of 100 to 300 nM.
With `Cc1cc(C(=O)Nc2cccc([C@H](C)Sc3nncn3C)c2)nc2ccccc12` [Compound 30, (S)-4-Methyl-N-(3-(1-((4-methyl-4H-1,2,4-triazol-3-yl)thio)ethyl)phenyl)quinoline-2-carboxamide], at Cbl-b, the IC50 was no more than 500 nM. Besides, in the experiment on T-cell [1], the fold induction at 1 µM was in the range of 0.601 to 0.8 and the fold induction at 8 µM lay within 0.801 to 1. Besides, in the experiment with T-cell [2], the fold induction at 1 µM lay within 0.051 to 0.1 and the fold induction at 8 µM is 0.101 to 0.15. The same compound registered a Kd on Cbl-b (residues 36-427) of 1000 to 3000 nM.
Turning to `C[C@H](Sc1nncn1C)c1cccc(NC(=O)c2cc(C(F)(F)F)ccn2)c1` [Compound 32, (S)-N-(3-(1-((4-Methyl-4H-1,2,4-triazol-3-yl)thio)ethyl)phenyl)-4-(trifluoromethyl)picolinamide], the IC50 at Cbl-b was no more than 10000 nM. Further, in the experiment on T-cell [1], the fold induction at 1 µM was 0.601 to 0.8 and the fold induction at 8 µM was greater than 1. In the experiment with T-cell [2], the fold induction at 1 µM was less than 0.05 and the fold induction at 8 µM lay in the range of 0.101 to 0.15. The compound also yielded a Kd at Cbl-b (residues 36-427) of 1000 to 3000 nM.
Turning to `CC(C)c1cccc(C(=O)Nc2cccc([C@H](C)Sc3nncn3C)c2)n1` [Compound 33, (S)-6-Isopropyl-N-(3-(1-((4-methyl-4H-1,2,4-triazol-3-yl)thio)ethyl)phenyl)picolinamide], the IC50 on Cbl-b is no more than 500 nM. Besides, the fold induction at 1 µM with T-cell [1] is less than 0.6; with T-cell [2], less than 0.05. Moreover, the values for the fold induction at 8 µM in the experiment with T-cell [1] and in the experiment with T-cell [2] were 0.801 to 1 and less than 0.05, respectively. This compound also gave a Kd on Cbl-b (residues 36-427) of 301 to 1000 nM.
`Cc1ccc(C(=O)Nc2cccc([C@H](C)Sc3nncn3C)c2)nc1C` [Compound 35, (S)-5,6-Dimethyl-N-(3-(1-((4-methyl-4H-1,2,4-triazol-3-yl)thio)ethyl)phenyl)picolinamide]: the IC50 on Cbl-b was no more than 1000 nM. Further, in the experiment with T-cell [1], the fold induction at 1 µM is less than 0.6 and the fold induction at 8 µM lay within 0.601 to 0.8. Further, in the experiment on T-cell [2], the fold induction at 1 µM was less than 0.05 and the fold induction at 8 µM is greater than 0.201. Besides, on Cbl-b (residues 36-427), the Kd fell in the range of 3000 to 10000 nM.
As to `Cc1cccc2nc(C(=O)Nc3cccc([C@H](C)Sc4nncn4C)c3)ccc12` [Compound 48, 5-Methyl-N-[3-[(1S)-1-[(4-methyl-4H-1,2,4-triazol-3-yl)sulfanyl]ethyl]phenyl]quinoline-2-carboxamide], at Cbl-b, the IC50 is no more than 500 nM. In addition, in the experiment with T-cell [1], the fold induction at 1 µM lay in the range of 0.801 to 1 and the fold induction at 8 µM was 0.801 to 1. Further, in the experiment with T-cell [2], the fold induction at 1 µM is less than 0.05 and the fold induction at 8 µM is 0.101 to 0.15. The compound further showed a Kd at Cbl-b (residues 36-427) of 1000 to 3000 nM.
Take `C[C@H](Sc1nncn1C)c1cccc(NC(=O)c2ccc(Cl)c(C(F)(F)F)n2)c1` [Compound 51, (S)-5-chloro-N-(3-(1-((4-methyl-4H-1,2,4-triazol-3-yl)thio)ethyl)phenyl)-6-(trifluoromethyl)picolinamide]: at Cbl-b, the IC50 is no more than 500 nM. Further, in the experiment with T-cell [1], the fold induction at 1 µM lay in the range of 0.801 to 1 and the fold induction at 8 µM was greater than 1. Moreover, in the experiment on T-cell [2], the fold induction at 1 µM is less than 0.05 and the fold induction at 8 µM is less than 0.05. For the same compound, at Cbl-b (residues 36-427), the Kd fell in the range of 301 to 1000 nM.
`C[C@H](Sc1nncn1C)c1cccc(NC(=O)c2cc(C(C)(C)O)c(Cl)cn2)c1` [Compound 55, (S)-5-chloro-4-(2-hydroxypropan-2-yl)-N-(3-(1-((4-methyl-4H-1,2,4-triazol-3-yl)thio)ethyl)phenyl)picolinamide]: the IC50 at Cbl-b was no more than 1000 nM. For the same compound, in the experiment with T-cell [1], the fold induction at 1 µM is less than 0.6 and the fold induction at 8 µM fell in the range of 0.601 to 0.8. Moreover, in the experiment on T-cell [2], the fold induction at 1 µM is less than 0.05 and the fold induction at 8 µM was less than 0.05. On Cbl-b (residues 36-427), the Kd was in the range of 1000 to 3000 nM.
Turning to `Cc1cc(C)nc(C(=O)Nc2cccc([C@H](C)Sc3nncn3C)c2)c1` [Compound 56, (S)-4,6-dimethyl-N-(3-(1-((4-methyl-4H-1,2,4-triazol-3-yl)thio)ethyl)phenyl)picolinamide], the IC50 at Cbl-b is no more than 1000 nM. Also, in the experiment with T-cell [1], the fold induction at 1 µM is less than 0.6 and the fold induction at 8 µM fell in the range of 0.801 to 1. Moreover, in the experiment with T-cell [2], the fold induction at 1 µM is less than 0.05 and the fold induction at 8 µM was less than 0.05. The Kd at Cbl-b (residues 36-427) lay within 1000 to 3000 nM.
In the case of `Cc1ccc(C(=O)Nc2cccc([C@H](C)Sc3nncn3C)c2)nc1C(F)(F)F` [Compound 61, (S)-5-methyl-N-(3-(1-((4-methyl-4H-1,2,4-triazol-3-yl)thio)ethyl)phenyl)-6-(trifluoromethyl)picolinamide], the IC50 at Cbl-b was no more than 500 nM. In addition, the fold induction at 1 µM in the experiment with T-cell [1] was 0.601 to 0.8; in the experiment on T-cell [2], less than 0.05. Besides, the fold induction at 8 µM in the experiment on T-cell [1] was greater than 1; in the experiment on T-cell [2], less than 0.05. For the same compound, at Cbl-b (residues 36-427), the Kd is 100 to 300 nM.
For the compound `COc1nc(C(=O)Nc2cccc([C@H](C)Sc3nncn3C)c2)cc2ccccc12` [Compound 62, (S)-1-methoxy-N-(3-(1-((4-methyl-4H-1,2,4-triazol-3-yl)thio)ethyl)phenyl)isoquinoline-3-carboxamide], the half-maximal inhibitory concentration (IC50) at Cbl-b was no more than 500 nM. In addition, in the experiment with T-cell [1], the fold induction at 1 µM is less than 0.6 and the fold induction at 8 µM was in the range of 0.801 to 1. For the same compound, in the experiment on T-cell [2], the fold induction at 1 µM is less than 0.05 and the fold induction at 8 µM is 0.051 to 0.1. Also, the Kd on Cbl-b (residues 36-427) fell in the range of 301 to 1000 nM.
Regarding `C[C@H](Sc1nncn1C)c1cccc(NC(=O)c2cc(C(F)(F)F)cc(C(F)(F)F)n2)c1` [Compound 64, (S)-N-(3-(1-((4-methyl-4H-1,2,4-triazol-3-yl)thio)ethyl)phenyl)-4,6-bis(trifluoromethyl)picolinamide], at Cbl-b, the IC50 is no more than 1000 nM. Also, in the experiment with T-cell [1], the fold induction at 1 µM is less than 0.6 and the fold induction at 8 µM fell in the range of 0.601 to 0.8. Moreover, in the experiment with T-cell [2], the fold induction at 1 µM is less than 0.05 and the fold induction at 8 µM is less than 0.05. This compound also displayed a Kd at Cbl-b (residues 36-427) of 1000 to 3000 nM.
For `C[C@H](Sc1nncn1C)c1cccc(NC(=O)c2cc(Cl)cc(C(F)(F)F)n2)c1` [Compound 68, (S)-4-chloro-N-(3-(1-((4-methyl-4H-1,2,4-triazol-3-yl)thio)ethyl)phenyl)-6-(trifluoromethyl)picolinamide], the IC50 on Cbl-b was no more than 500 nM. The fold induction at 1 µM was 0.601 to 0.8 in the experiment on T-cell [1] and less than 0.05 in the experiment on T-cell [2]. The figures for the fold induction at 8 µM in the experiment on T-cell [1] and with T-cell [2] were 0.801 to 1 and 0.051 to 0.1, respectively. Also, the Kd on Cbl-b (residues 36-427) was in the range of 301 to 1000 nM.
In the case of `C[C@H](Cc1nncn1C)c1cccc(NC(=O)c2cccc(CCO)n2)c1` [Compound 202, 6-(2-hydroxyethyl)-N-[3-[(2R)-1-(4-methyl-4H-1,2,4-triazol-3-yl)propan-2-yl]phenyl]pyridine-2-carboxamide], on Cbl-b, the IC50 was no more than 1000 nM. Moreover, the fold induction at 1 µM in the experiment with T-cell [1] was less than 0.6; in the experiment with T-cell [2], 0.051 to 0.1. In addition, the fold induction at 8 µM in the experiment with T-cell [1] lay in the range of 0.801 to 1; in the experiment with T-cell [2], 0.151 to 0.2.
As to `Cn1cnnc1C(F)(F)[C@](C)(F)c1cccc(N2Cc3c(cccc3C(F)(F)F)C2=O)c1` [Compound 296a, (R)-2-(3-(1,1,2-trifluoro-1-(4-methyl-4H-1,2,4-triazol-3-yl)propan-2-yl)phenyl)-4-(trifluoromethyl)isoindolin-1-one], the IC50 at Cbl-b was no more than 500 nM. In addition, in the experiment with T-cell [1], the fold induction at 1 µM fell in the range of 0.601 to 0.8 and the fold induction at 8 µM is greater than 1. For the same compound, in the experiment with T-cell [2], the fold induction at 1 µM fell in the range of 0.151 to 0.2 and the fold induction at 8 µM was greater than 0.201.
Take `CNCc1ccc(C(=O)Nc2cccc([C@H](C)Cc3nncn3C)c2)nc1C1CC1` [Compound 376, (R)-6-cyclopropyl-N-(3-(1-(4-methyl-4H-1,2,4-triazol-3-yl)propan-2-yl)phenyl)-5-((methylamino)methyl)picolinamide]: the IC50 on Cbl-b was no more than 300 nM.
